Values of other authors as cited in patent US20050187388A1, “Method for the preparation of aryl ethers” (priority 2004, published 2005).

Assays:
serotonin reuptake = serotonin reuptake (Homo sapiens, UniProt P31645)
8-OH-DPAT hypothermia = conditions: in vivo
dopamine reuptake = dopamine reuptake (Homo sapiens, UniProt Q01959)
dopamine reuptake, sequence (Q01959 whole entry): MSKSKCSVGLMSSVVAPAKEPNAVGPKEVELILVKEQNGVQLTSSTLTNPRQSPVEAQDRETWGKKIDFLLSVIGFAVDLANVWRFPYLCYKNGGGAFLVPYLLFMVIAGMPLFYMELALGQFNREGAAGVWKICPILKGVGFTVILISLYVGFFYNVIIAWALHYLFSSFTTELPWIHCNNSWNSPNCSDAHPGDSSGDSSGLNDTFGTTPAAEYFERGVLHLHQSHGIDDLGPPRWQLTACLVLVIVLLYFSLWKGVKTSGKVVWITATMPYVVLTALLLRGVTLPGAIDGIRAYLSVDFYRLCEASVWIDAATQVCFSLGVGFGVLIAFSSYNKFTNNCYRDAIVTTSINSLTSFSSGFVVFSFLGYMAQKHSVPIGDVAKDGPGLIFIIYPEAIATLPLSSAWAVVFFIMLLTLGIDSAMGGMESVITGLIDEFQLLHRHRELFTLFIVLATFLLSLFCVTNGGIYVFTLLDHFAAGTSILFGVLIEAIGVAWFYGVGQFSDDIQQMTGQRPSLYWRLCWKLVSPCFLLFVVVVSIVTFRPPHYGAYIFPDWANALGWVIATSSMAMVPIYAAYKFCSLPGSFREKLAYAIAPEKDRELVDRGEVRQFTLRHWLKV

serotonin reuptake, sequence (P31645 whole entry): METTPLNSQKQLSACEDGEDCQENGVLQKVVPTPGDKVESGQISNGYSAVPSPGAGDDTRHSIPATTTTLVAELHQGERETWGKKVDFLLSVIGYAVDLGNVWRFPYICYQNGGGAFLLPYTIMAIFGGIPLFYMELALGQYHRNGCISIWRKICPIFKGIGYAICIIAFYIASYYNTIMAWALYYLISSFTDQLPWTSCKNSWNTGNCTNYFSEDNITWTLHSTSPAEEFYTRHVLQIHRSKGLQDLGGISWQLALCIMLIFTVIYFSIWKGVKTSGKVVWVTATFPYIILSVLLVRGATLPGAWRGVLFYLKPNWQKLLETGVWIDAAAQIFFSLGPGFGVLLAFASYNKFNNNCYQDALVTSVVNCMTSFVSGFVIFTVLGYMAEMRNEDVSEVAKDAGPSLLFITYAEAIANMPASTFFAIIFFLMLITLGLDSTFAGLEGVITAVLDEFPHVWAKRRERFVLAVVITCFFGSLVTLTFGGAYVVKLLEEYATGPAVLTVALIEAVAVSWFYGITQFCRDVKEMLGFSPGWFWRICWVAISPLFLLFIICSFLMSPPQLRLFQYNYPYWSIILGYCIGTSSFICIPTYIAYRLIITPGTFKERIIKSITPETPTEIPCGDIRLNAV

Q: What does the source list for `CCOc1ccccc1O[C@@H](c1ccccc1)[C@@H]1CNCCO1` (racemic) [Reboxetine, 2-[α-(2-ethoxyphenoxy)benzyl]morpholine]?
A: serotonin reuptake inhibitory activity (serotonin reuptake): only marginal; effect in the 8-OH-DPAT hypothermia test (8-OH-DPAT hypothermia): ineffective; dopamine reuptake inhibitory activity (dopamine reuptake): no dopamine reuptake inhibitory activity
